Molecular target: T1, transketolase (TK) (Mus musculus, UniProt P40142)
T1 construct: from tissue; host or cells: mouse blood, spleen, tumor, kidney, lung, liver (crude lysates)
T1 sequence (P40142 1-623): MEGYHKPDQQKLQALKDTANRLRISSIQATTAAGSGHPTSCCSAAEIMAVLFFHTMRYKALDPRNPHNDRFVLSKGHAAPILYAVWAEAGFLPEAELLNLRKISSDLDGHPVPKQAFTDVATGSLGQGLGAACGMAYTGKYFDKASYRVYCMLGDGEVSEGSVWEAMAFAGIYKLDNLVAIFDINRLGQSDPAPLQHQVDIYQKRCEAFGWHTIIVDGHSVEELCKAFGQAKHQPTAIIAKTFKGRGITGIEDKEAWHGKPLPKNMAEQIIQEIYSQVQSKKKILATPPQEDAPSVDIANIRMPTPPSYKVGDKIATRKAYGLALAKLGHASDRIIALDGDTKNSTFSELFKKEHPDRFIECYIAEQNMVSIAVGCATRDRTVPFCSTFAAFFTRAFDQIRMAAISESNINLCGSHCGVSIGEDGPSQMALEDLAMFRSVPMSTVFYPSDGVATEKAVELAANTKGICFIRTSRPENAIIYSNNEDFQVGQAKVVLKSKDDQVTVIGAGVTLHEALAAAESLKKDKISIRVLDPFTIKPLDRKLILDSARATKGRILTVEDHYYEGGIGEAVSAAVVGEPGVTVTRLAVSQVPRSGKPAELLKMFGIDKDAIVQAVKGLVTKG
Experiment: Transketolase activity in blood, tumors and tissues of treated mice (fluorescence NADH assay)
Type: in vivo
Procedure: Blood samples from mice were taken (40 μl whole blood) serially or from mice sacrificed at the end of the experiment. Tissues, such as tumors (e.g. from implantation, xenograft, or arising spontaneously), brain, heart, kidney, liver, lung and spleen were taken and flash frozen in liquid nitrogen or on dry ice and stored in −80° C. until time of assay. Four volumes of cold lysis buffer (20 mM HEPES, pH 7.5, 1 mM EDTA, 0.2 g/l Triton X-100® and 0.2 g/L sodium deoxycholate, supplemented with 1 mM DTT and 1 mM PMSF just before use) were added to the blood, which was dissolved by vortexing. For blood that was frozen before coagulation, a clear lysate was obtained. If coagulation occurred, homogenization was used as described below for tissue. Tissues were suspended in lysis buffer in 10 ml round bottom tubes and homogenized with PowerGen 125® (Fisher Scientific) for four seconds at highest power while submerged in an ice-water bath. This step was repeated after a few seconds, as necessary. The lysate was used right away or else flash frozen and stored at −80° C. until assay time. Eighty microliters (80 μl) of lysate (containing 5 mg tissue/ml lysate for TK and kGDH, 0.5 mg/ml for G6PDH) were put directly in individual wells of a 96-well clear-bottomed assay plate. Twenty microliters (20 μl) of 5× reaction mix was added to initiate each enzymatic reaction.
Each reaction was monitored for the appearance of NADH (for transketolase, alpha-ketoglutarate dehydrogenase, pyruvate dehydrogenase) or NADPH (for glucose-6-phosphate dehydrogenase) at room temperature in a fluorescent plate reader with excitation at 340 nm and emission at 470 nm in kinetic mode. The velocity was determined by the slope of the initial linear range of increasing fluorescence, expressed in fluorescent units (FU)/min. The protein concentration in the lysate was determined using Bradford assays (BioRad) with BSA as a standard. The enzymatic velocity was normalized by the total protein concentration for inter-sample comparison. To obtain reliable results across samples, similar starting protein concentrations were prepared (within approximately 30%) so that the normalized velocity required only small adjustments. This was achieved by weighing the tissue and putting in lysis buffer so that the suspensions contained the same amount of tissue/ml lysis buffer for all samples.
For TK, 15 μl of 5× assay buffer containing final concentrations of 50 mM HEPES, 40 mM KCl, 2.5 mM MgCl2, 5 mM NaArsenate, 1 mM NAD, 2 unit/ml glyceraldehydes-3-phosphate dehydrogenase (GAPDH) was added to 80 μl of lysate. Reaction kinetics were monitored on a fluorescent plate reader to allow any possible background activity via GAPDH to burn out. Then 5 μl of substrate mix containing final concentrations of 0.5 mM ribose-5-phosphate and 0.5 mM xylulose-5-phosphate was added to initiate the reaction. The reaction kinetics were monitored using a fluorescent plate reader, and the slope of the initial linear range was recorded as the velocity of the reaction (FU/min). See FIG. 1 for the reaction scheme.
To investigate the amount of in vivo enzyme inhibition following treatment with an inhibitor, we administered a single dose of N3PT (100 mg/kg, intraperitoneally [i.p.]) and blood, spleen and brain samples were collected at various times from 0-120 hours after dosing. The enzymatic activities were determined as described in Example 1. TK activity was measured in blood and spleen. Because TK activity in the brain is below the detection limit of the assay, kGDH activity was measured in brain samples. Measurements were taken at various time intervals
We measured enzyme activity in an expanded panel of tissues from mice treated with N3PT or OxyT for 11 days i.p., twice per day. Samples were taken from tumors, blood, brain, heart, kidney, lung and spleen, and TK, kGDH and G6PDH activities were determined as described above.

percent inhibition of TK activity in tumors (11 days i.p. twice per day, 100 mg/kg, compared to vehicle control): 70%
liver enzymatic (TK) activity (11 days i.p. twice per day, liver): hardly affected
Inhibition of transketolase activity in the spleen (single dose 100 mg/kg i.p., 8-24 hours post-treatment): up to 35%
Transketolase inhibition at 1 hour post-treatment (single dose 100 mg/kg i.p., 1 hour post-treatment): detectable
Transketolase inhibition at the final sampling at 120 hours (single dose 100 mg/kg i.p., 120 hours (5 days)): still evident
inhibition of transketolase activity in the blood (single dose N3PT 100 mg/kg i.p., at the nadir (12 hours)): 80%
SMILES: Cc1ccc(C[n+]2csc(CCO)c2C)c(N)n1 [N3PT, 3-[(2-amino-6-methyl-3-pyridinyl)methyl]-5-(2-hydroxyethyl)-4-methyl thiazolium]
